Measured values from ChEMBL document CHEMBL1201862, “PubChem BioAssay data set” (2004).
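Tested at 5 concentrations; 48 h exposure; 96-well plates; endpoints linearly interpolated, else capped at highest concentration. GI50 marks 50% less growth.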 Calls of active or inactive are those of the source. No stated cut-off is given here; in the data, active = GI50 up to about 1.1 µM and inactive = higher.

Tests used:
Experiment in all cases: NCI tumour cell line growth inhibition, 48 h
A498 = tested on: A498
U-251 = tested on: U-251
HCT-116 = tested on: HCT-116
A549 = tested on: A549
Malme-3M = tested on: Malme-3M
NCI-H522 = tested on: NCI-H522
KM12 = tested on: KM12
COLO 205 = tested on: COLO 205
NCI/ADR-RES = tested on: NCI/ADR-RES
DU-145 = tested on: DU-145
HCC 2998 = tested on: HCC 2998
UACC-257 = tested on: UACC-257
HOP-92 = tested on: HOP-92
PC-3 = tested on: PC-3
OVCAR-3 = tested on: OVCAR-3
ACHN = tested on: ACHN
SK-MEL-2 = tested on: SK-MEL-2
SK-MEL-28 = tested on: SK-MEL-28
TK-10 = tested on: TK-10
RPMI-8226 = tested on: RPMI-8226
SF-539 = tested on: SF-539
SW-620 = tested on: SW-620
CCRF-CEM = tested on: CCRF-CEM
LOX IMVI = tested on: LOX IMVI
SR = tested on: SR
NCI-H460 = tested on: NCI-H460
K562 = tested on: K562
OVCAR-8 = tested on: OVCAR-8
NCI-H226 = tested on: NCI-H226
SK-OV-3 = tested on: SK-OV-3
MOLT-4 = tested on: MOLT-4
UACC-62 = tested on: UACC-62
BT-549 = tested on: BT-549
OVCAR-5 = tested on: OVCAR-5
786-0 = tested on: 786-0
SK-MEL-5 = tested on: SK-MEL-5
M14 = tested on: M14
T47D = tested on: T47D
MDA-N = tested on: MDA-N
MDA-MB-435 = tested on: MDA-MB-435
SN12C = tested on: SN12C
RXF 393 = tested on: RXF 393
NCI-H23 = tested on: NCI-H23
OVCAR-4 = tested on: OVCAR-4
SF-295 = tested on: SF-295
MCF7 = tested on: MCF7
EKVX = tested on: EKVX
SNB-19 = tested on: SNB-19
Hs-578T = tested on: Hs-578T
MDA-MB-231 = tested on: MDA-MB-231
HL-60 = tested on: HL-60
UO-31 = tested on: UO-31
HCT-15 = tested on: HCT-15
HT-29 = tested on: HT-29
SNB-75 = tested on: SNB-75
SF-268 = tested on: SF-268
CAKI-1 = tested on: CAKI-1
HOP-62 = tested on: HOP-62
IGROV-1 = tested on: IGROV-1

SMILES: Cn1c(=O)n2n(c1=O)Cc1cccc3cccc(c13)C2
- GI50 (A498): > 100 µM (inactive)
- GI50 (U-251): > 100 µM (inactive)
- GI50 (HCT-116): > 100 µM (inactive)
- GI50 (A549): > 100 µM (inactive)
- GI50 (Malme-3M): > 100 µM (inactive)
- GI50 (NCI-H522): > 100 µM (inactive)
- GI50 (KM12): > 100 µM (inactive)
- GI50 (COLO 205): > 100 µM (inactive)
- GI50 (NCI/ADR-RES): > 100 µM (inactive)
- GI50 (DU-145): > 100 µM (inactive)
- GI50 (HCC 2998): > 100 µM (inactive)
- GI50 (UACC-257): > 100 µM (inactive)
- GI50 (HOP-92): > 100 µM (inactive)
- GI50 (PC-3): > 100 µM (inactive)
- GI50 (OVCAR-3): > 100 µM (inactive)
- GI50 (ACHN): > 100 µM (inactive)
- GI50 (SK-MEL-2): > 100 µM (inactive)
- GI50 (SK-MEL-28): > 100 µM (inactive)
- GI50 (TK-10): > 100 µM (inactive)
- GI50 (RPMI-8226): > 100 µM (inactive)
- GI50 (SF-539): > 100 µM (inactive)
- GI50 (SW-620): > 100 µM (inactive)
- GI50 (CCRF-CEM): > 100 µM (inactive)
- GI50 (LOX IMVI): > 100 µM (inactive)
- GI50 (SR): > 100 µM (inactive)
- GI50 (NCI-H460): > 100 µM (inactive)
- GI50 (K562): > 100 µM (inactive)
- GI50 (OVCAR-8): > 100 µM (inactive)
- GI50 (NCI-H226): > 100 µM (inactive)
- GI50 (SK-OV-3): > 100 µM (inactive)
- GI50 (MOLT-4): > 100 µM (inactive)
- GI50 (UACC-62): > 100 µM (inactive)
- GI50 (BT-549): > 100 µM (inactive)
- GI50 (OVCAR-5): > 100 µM (inactive)
- GI50 (786-0): > 100 µM (inactive)
- GI50 (SK-MEL-5): > 100 µM (inactive)
- GI50 (M14): > 100 µM (inactive)
- GI50 (T47D): > 100 µM (inactive)
- GI50 (MDA-N): > 100 µM (inactive)
- GI50 (MDA-MB-435): > 100 µM (inactive)
- GI50 (SN12C): > 100 µM (inactive)
- GI50 (RXF 393): 53.6 µM (inactive)
- GI50 (NCI-H23): > 100 µM (inactive)
- GI50 (OVCAR-4): > 100 µM (inactive)
- GI50 (SF-295): > 100 µM (inactive)
- GI50 (MCF7): > 100 µM (inactive)
- GI50 (EKVX): > 100 µM (inactive)
- GI50 (SNB-19): > 100 µM (inactive)
- GI50 (Hs-578T): > 100 µM (inactive)
- GI50 (MDA-MB-231): > 100 µM (inactive)
- GI50 (HL-60): 1.82 µM (inactive)
- GI50 (UO-31): 63.8 µM (inactive)
- GI50 (HCT-15): > 100 µM
- GI50 (HT-29): > 100 µM (inactive)
- GI50 (SNB-75): > 100 µM (inactive)
- GI50 (SF-268): > 100 µM (inactive)
- GI50 (CAKI-1): > 100 µM (inactive)

SMILES: CC(=N\N)/C(C)=N/N=C(C)/C(C)=N/N
- GI50 (A498): > 100 µM (inactive)
- GI50 (U-251): > 100 µM (inactive)
- GI50 (HCT-116): > 100 µM (inactive)
- GI50 (A549): > 100 µM (inactive)
- GI50 (Malme-3M): > 100 µM (inactive)
- GI50 (HOP-62): > 100 µM (inactive)
- GI50 (NCI-H522): > 100 µM (inactive)
- GI50 (KM12): > 100 µM (inactive)
- GI50 (COLO 205): > 100 µM (inactive)
- GI50 (NCI/ADR-RES): > 100 µM (inactive)
- GI50 (DU-145): > 100 µM (inactive)
- GI50 (HCC 2998): > 100 µM (inactive)
- GI50 (UACC-257): > 100 µM (inactive)
- GI50 (HOP-92): > 100 µM (inactive)
- GI50 (PC-3): > 100 µM (inactive)
- GI50 (OVCAR-3): > 100 µM (inactive)
- GI50 (IGROV-1): > 100 µM (inactive)
- GI50 (ACHN): > 100 µM (inactive)
- GI50 (SK-MEL-2): > 100 µM (inactive)
- GI50 (SK-MEL-28): > 100 µM (inactive)
- GI50 (TK-10): > 100 µM (inactive)
- GI50 (RPMI-8226): > 100 µM (inactive)
- GI50 (SF-539): > 100 µM (inactive)
- GI50 (SW-620): > 100 µM (inactive)
- GI50 (CCRF-CEM): > 100 µM (inactive)
- GI50 (LOX IMVI): > 100 µM (inactive)
- GI50 (SR): > 100 µM (inactive)
- GI50 (NCI-H460): > 100 µM (inactive)
- GI50 (K562): > 10 µM (inactive)
- GI50 (OVCAR-8): > 100 µM (inactive)
- GI50 (NCI-H226): > 100 µM (inactive)
- GI50 (SK-OV-3): > 100 µM (inactive)
- GI50 (BT-549): > 100 µM (inactive)
- GI50 (OVCAR-5): > 100 µM (inactive)
- GI50 (786-0): > 100 µM (inactive)
- GI50 (SK-MEL-5): > 100 µM (inactive)
- GI50 (M14): > 100 µM (inactive)
- GI50 (T47D): > 100 µM (inactive)
- GI50 (MDA-N): > 100 µM (inactive)
- GI50 (MDA-MB-435): > 100 µM (inactive)
- GI50 (SN12C): > 100 µM (inactive)
- GI50 (RXF 393): > 100 µM (inactive)
- GI50 (NCI-H23): > 100 µM (inactive)
- GI50 (OVCAR-4): > 100 µM (inactive)
- GI50 (SF-295): > 100 µM (inactive)
- GI50 (MCF7): > 100 µM (inactive)
- GI50 (EKVX): > 100 µM (inactive)
- GI50 (SNB-19): > 100 µM (inactive)
- GI50 (Hs-578T): > 100 µM (inactive)
- GI50 (MDA-MB-231): > 100 µM (inactive)
- GI50 (HL-60): > 100 µM (inactive)
- GI50 (UO-31): > 100 µM (inactive)
- GI50 (HCT-15): > 100 µM
- GI50 (HT-29): > 100 µM (inactive)
- GI50 (SNB-75): > 100 µM (inactive)
- GI50 (SF-268): > 100 µM (inactive)
- GI50 (CAKI-1): > 100 µM (inactive)

SMILES: COc1ccc2c(c1)CCC(CN1CCN(CCOC(c3ccc(F)cc3)c3ccc(F)cc3)CC1)=C2
- GI50 (A498): 8.36 µM (inactive)
- GI50 (U-251): 14.8 µM (inactive)
- GI50 (HCT-116): 7.26 µM (inactive)
- GI50 (A549): 27.5 µM (inactive)
- GI50 (Malme-3M): 14.4 µM (inactive)
- GI50 (HOP-62): 33.9 µM (inactive)
- GI50 (NCI-H522): 13.9 µM (inactive)
- GI50 (KM12): 15.1 µM (inactive)
- GI50 (COLO 205): 2.14 µM (inactive)
- GI50 (NCI/ADR-RES): 11.8 µM (inactive)
- GI50 (DU-145): 19 µM (inactive)
- GI50 (HCC 2998): 4.89 µM (inactive)
- GI50 (UACC-257): 9.18 µM (inactive)
- GI50 (HOP-92): 16.1 µM (inactive)
- GI50 (PC-3): 16.8 µM (inactive)
- GI50 (OVCAR-3): 16.9 µM (inactive)
- GI50 (IGROV-1): 28.1 µM (inactive)
- GI50 (ACHN): 13.3 µM (inactive)
- GI50 (SK-MEL-2): 15.8 µM (inactive)
- GI50 (SK-MEL-28): 21.3 µM (inactive)
- GI50 (TK-10): 14.3 µM (inactive)
- GI50 (RPMI-8226): 4.52 µM (inactive)
- GI50 (SF-539): 13 µM (inactive)
- GI50 (SW-620): 22.9 µM (inactive)
- GI50 (CCRF-CEM): 14.1 µM (inactive)
- GI50 (LOX IMVI): 15.6 µM (inactive)
- GI50 (SR): 3.71 µM (inactive)
- GI50 (NCI-H460): 12.4 µM (inactive)
- GI50 (K562): 4.47 µM (inactive)
- GI50 (OVCAR-8): 18.8 µM (inactive)
- GI50 (NCI-H226): 13 µM (inactive)
- GI50 (SK-OV-3): > 100 µM (inactive)
- GI50 (MOLT-4): 10 µM (inactive)
- GI50 (UACC-62): 16.1 µM (inactive)
- GI50 (BT-549): 13.6 µM (inactive)
- GI50 (OVCAR-5): 23.1 µM (inactive)
- GI50 (786-0): 11.9 µM (inactive)
- GI50 (SK-MEL-5): 5.22 µM (inactive)
- GI50 (M14): 9.31 µM (inactive)
- GI50 (T47D): 8.45 µM (inactive)
- GI50 (MDA-N): 11.8 µM (inactive)
- GI50 (MDA-MB-435): 16.8 µM (inactive)
- GI50 (SN12C): 11.1 µM (inactive)
- GI50 (RXF 393): 11.2 µM (inactive)
- GI50 (NCI-H23): 14.8 µM (inactive)
- GI50 (OVCAR-4): 24.8 µM (inactive)
- GI50 (SF-295): 22.2 µM (inactive)
- GI50 (MCF7): 13.6 µM (inactive)
- GI50 (EKVX): 6.07 µM (inactive)
- GI50 (SNB-19): 42.5 µM (inactive)
- GI50 (Hs-578T): 19.3 µM (inactive)
- GI50 (MDA-MB-231): 14.1 µM (inactive)
- GI50 (HL-60): 5.53 µM (inactive)
- GI50 (HCT-15): 3.53 µM
- GI50 (HT-29): 4.53 µM (inactive)
- GI50 (SNB-75): 46.5 µM (inactive)
- GI50 (SF-268): 31.6 µM (inactive)
- GI50 (CAKI-1): 18.9 µM (inactive)
